Patent publication US10196386B2, “Compounds having muscarinic receptor antagonist and beta2 adrenergic receptor agonist activity” (priority 2016, dated 2019)

Experiments:
[1] = target: T1, Human M3 receptor (Homo sapiens, UniProt P20309); assay: biochemical; assay type: binding; conditions: read-out: M3 Range
T1 construct: purchased Perkin Elmer

[2] = target: T2, Human β2 adrenoceptor (Homo sapiens, UniProt P07550); assay: β2 adrenoceptor radioligand binding assay
T2 construct: purchased Perkin Elmer
T2 sequence (P07550 whole entry): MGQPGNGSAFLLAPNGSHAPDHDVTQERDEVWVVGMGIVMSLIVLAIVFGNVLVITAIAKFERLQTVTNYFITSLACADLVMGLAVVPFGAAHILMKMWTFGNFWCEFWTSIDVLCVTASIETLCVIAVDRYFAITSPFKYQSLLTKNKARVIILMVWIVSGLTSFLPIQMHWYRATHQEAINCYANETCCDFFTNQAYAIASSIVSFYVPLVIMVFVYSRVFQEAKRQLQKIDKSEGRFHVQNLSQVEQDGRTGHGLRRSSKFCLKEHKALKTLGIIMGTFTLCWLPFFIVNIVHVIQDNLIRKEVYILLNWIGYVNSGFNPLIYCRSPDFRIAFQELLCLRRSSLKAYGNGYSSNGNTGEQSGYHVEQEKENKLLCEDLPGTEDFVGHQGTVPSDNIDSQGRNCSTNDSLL
How it was run: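 Human β2 receptor membranes incubated 1 h at room temperature with 0.3 nM [125I]cyanopindolol and compound in pH 7.4 HEPES buffer (0.5% DMSO); 2 μM s-propranolol defined non-specific binding. Bound label counted after filtration; IC50 from competition curves, converted to Ki via Cheng–Prusoff.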

T1 sequence (P20309 whole entry): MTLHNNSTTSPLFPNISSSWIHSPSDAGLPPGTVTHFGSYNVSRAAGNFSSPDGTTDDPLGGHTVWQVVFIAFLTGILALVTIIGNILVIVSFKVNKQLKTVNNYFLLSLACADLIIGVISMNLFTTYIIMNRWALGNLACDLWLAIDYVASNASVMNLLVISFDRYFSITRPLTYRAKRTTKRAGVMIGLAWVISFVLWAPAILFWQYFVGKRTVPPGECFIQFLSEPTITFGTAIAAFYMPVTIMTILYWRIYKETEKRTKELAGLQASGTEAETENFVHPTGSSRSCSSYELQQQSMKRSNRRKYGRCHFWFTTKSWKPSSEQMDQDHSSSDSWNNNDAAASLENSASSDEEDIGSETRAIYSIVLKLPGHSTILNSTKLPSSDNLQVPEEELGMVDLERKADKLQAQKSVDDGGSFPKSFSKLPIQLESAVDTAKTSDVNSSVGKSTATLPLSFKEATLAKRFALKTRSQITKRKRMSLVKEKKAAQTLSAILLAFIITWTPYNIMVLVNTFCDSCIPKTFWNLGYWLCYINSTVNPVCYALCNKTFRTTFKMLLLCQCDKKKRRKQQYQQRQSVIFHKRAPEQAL

Compound | IC50 [1] | IC50 [2]
O=C(c1cncc(-c2cccc([C@](O)(C(=O)OCC3CCN(Cc4ccccc4)CC3)c3ccccc3)c2)c1)N1CCC(CNC[C@H](O)c2ccc(O)c3[nH]c(=O)ccc23)CC1 [Compound 6E, (1-Benzylpiperidin-4-yl)methyl (S)-2-hydroxy-2-(3-(5-(4-((((R)-2-hydroxy-2-(8-hydroxy-2-oxo-1,2-dihydroquinolin-5-yl)ethyl)amino)methyl)piperidine-1-carbonyl)pyridin-3-yl)phenyl)-2-phenylacetate] | 0.3 to 3 nM | < 0.3 nM
O=C(c1cccc(-c2cccc([C@](O)(C(=O)OCC3CCN(Cc4ccccc4)CC3)c3ccccc3)c2)n1)N1CCC(CNC[C@H](O)c2ccc(O)c3[nH]c(=O)ccc23)CC1 [Compound 6F, (1-Benzylpiperidin-4-yl)methyl (S)-2-hydroxy-2-(3-(6-(4-((((R)-2-hydroxy-2-(8-hydroxy-2-oxo-1,2-dihydroquinolin-5-yl)ethyl)amino)methyl)piperidine-1-carbonyl)pyridin-2-yl)phenyl)-2-phenylacetate] | 0.3 to 3 nM | 0.3 to 3 nM
O=C(c1ccc(CNC[C@H](O)c2ccc(O)c3[nH]c(=O)ccc23)cc1)N1CCC(c2cccc([C@](O)(C(=O)OCC3CCN(Cc4ccccc4)CC3)c3ccccc3)c2)CC1 [Compound 7, (1-Benzylpiperidin-4-yl)methyl (S)-2-hydroxy-2-(3-(1-(4-((((R)-2-hydroxy-2-(8-hydroxy-2-oxo-1,2-dihydroquinolin-5-yl)ethyl)amino)methyl)benzoyl)piperidin-4-yl)phenyl)-2-phenylacetate] | 0.3 to 3 nM | 0.3 to 3 nM
COc1cc(C(=O)N2CCC(c3cccc([C@](O)(C(=O)OCC4CCN(Cc5ccccc5)CC4)c4ccccc4)c3)CC2)ccc1CNC[C@H](O)c1ccc(O)c2[nH]c(=O)ccc12 [Compound 7A, (1-Benzylpiperidin-4-yl)methyl (S)-2-hydroxy-2-(3-(1-(4-((((R)-2-hydroxy-2-(8-hydroxy-2-oxo-1,2-dihydroquinolin-5-yl)ethyl)amino)methyl)-3-methoxybenzoyl)piperidin-4-yl)phenyl)-2-phenylacetate] | 0.3 to 3 nM | 0.3 to 3 nM
COc1cc(CNC[C@H](O)c2ccc(O)c3[nH]c(=O)ccc23)ccc1C(=O)N1CCC(c2cccc([C@](O)(C(=O)OCC3CCN(Cc4ccccc4)CC3)c3ccccc3)c2)CC1 [Compound 7B, (1-Benzylpiperidin-4-yl)methyl (S)-2-hydroxy-2-(3-(1-(4-((((R)-2-hydroxy-2-(8-hydroxy-2-oxo-1,2-dihydroquinolin-5-yl)ethyl)amino)methyl)-2-methoxybenzoyl)piperidin-4-yl)phenyl)-2-phenylacetate] | 0.3 to 3 nM | > 3 nM
O=C(c1ccc(CCNC[C@H](O)c2ccc(O)c3[nH]c(=O)ccc23)cc1)N1CCC(c2cccc([C@](O)(C(=O)OCC3CCN(Cc4ccccc4)CC3)c3ccccc3)c2)CC1 [Compound 7C, (1-Benzylpiperidin-4-yl)methyl (S)-2-hydroxy-2-(3-(1-(4-(2-(((R)-2-hydroxy-2-(8-hydroxy-2-oxo-1,2-dihydroquinolin-5-yl)ethyl)amino)ethyl)benzoyl)piperidin-4-yl)phenyl)-2-phenylacetate] | 0.3 to 3 nM | < 0.3 nM
O=C(c1ccc2c(c1)CC(NC[C@H](O)c1ccc(O)c3[nH]c(=O)ccc13)C2)N1CCC(c2cccc([C@](O)(C(=O)OCC3CCN(Cc4ccccc4)CC3)c3ccccc3)c2)CC1 (stereo partly drawn) [Compound 7D, (1-Benzylpiperidin-4-yl)methyl (2S)-2-hydroxy-2-(3-(1-(2-(((R)-2-hydroxy-2-(8-hydroxy-2-oxo-1,2-dihydroquinolin-5-yl)ethyl)amino)-2,3-dihydro-1H-indene-5-carbonyl)piperidin-4-yl)phenyl)-2-phenylacetate] | < 0.3 nM | 0.3 to 3 nM
O=C(NCC(=O)N1CC=C(c2cccc([C@](O)(C(=O)OCC3CCN(Cc4ccccc4)CC3)c3ccccc3)c2)CC1)c1ccc(CCNC[C@H](O)c2ccc(O)c3[nH]c(=O)ccc23)cc1 [Compound 8, (1-Benzylpiperidin-4-yl)methyl (S)-2-hydroxy-2-(3-(1-((4-(2-(((R)-2-hydroxy-2-(8-hydroxy-2-oxo-1,2-dihydroquinolin-5-yl)ethyl)amino)ethyl)benzoyl)-glycyl)-1,2,3,6-tetrahydropyridin-4-yl)phenyl)-2-phenylacetate] | < 0.3 nM | < 0.3 nM
COc1cc(CNC[C@H](O)c2ccc(O)c3[nH]c(=O)ccc23)ccc1C(=O)NCC(=O)N1CC=C(c2cccc([C@](O)(C(=O)OCC3CCN(Cc4ccccc4)CC3)c3ccccc3)c2)CC1 [Compound 8A, (1-Benzylpiperidin-4-yl)methyl (S)-2-hydroxy-2-(3-(1-((4-((((R)-2-hydroxy-2-(8-hydroxy-2-oxo-1,2-dihydroquinolin-5-yl)ethyl)amino)methyl)-2-methoxybenzoyl)glycyl)-1,2,3,6-tetrahydropyridin-4-yl)phenyl)-2-phenylacetate] | 0.3 to 3 nM | < 0.3 nM
C[C@@H](NC(=O)c1ccc(CNC[C@H](O)c2ccc(O)c3[nH]c(=O)ccc23)cc1)C(=O)N1CC=C(c2cccc([C@](O)(C(=O)OCC3CCN(Cc4ccccc4)CC3)c3ccccc3)c2)CC1 [Compound 8B, (1-Benzylpiperidin-4-yl)methyl (S)-2-hydroxy-2-(3-(1-((4-((((R)-2-hydroxy-2-(8-hydroxy-2-oxo-1,2-dihydroquinolin-5-yl)ethyl)amino)methyl)benzoyl)-D-alanyl)-1,2,3,6-tetrahydropyridin-4-yl)phenyl)-2-phenylacetate] | 0.3 to 3 nM | 0.3 to 3 nM
C[C@H](NC(=O)c1ccc(CNC[C@H](O)c2ccc(O)c3[nH]c(=O)ccc23)cc1)C(=O)N1CC=C(c2cccc([C@](O)(C(=O)OCC3CCN(Cc4ccccc4)CC3)c3ccccc3)c2)CC1 [Compound 8C, (1-Benzylpiperidin-4-yl)methyl (S)-2-hydroxy-2-(3-(1-((4-((((R)-2-hydroxy-2-(8-hydroxy-2-oxo-1,2-dihydroquinolin-5-yl)ethyl)amino)methyl)benzoyl)-L-alanyl)-1,2,3,6-tetrahydropyridin-4-yl)phenyl)-2-phenylacetate] | 0.3 to 3 nM | 0.3 to 3 nM
O=C(NCC(=O)N1CC=C(c2cccc([C@](O)(C(=O)OCC3CCN(Cc4ccccc4)CC3)c3ccccc3)c2)CC1)c1ccc(CNC[C@H](O)c2ccc(O)c3[nH]c(=O)ccc23)cc1 [Compound 8D, (1-Benzylpiperidin-4-yl)methyl (S)-2-hydroxy-2-(3-(1-((4-((((R)-2-hydroxy-2-(8-hydroxy-2-oxo-1,2-dihydroquinolin-5-yl)ethyl)amino)methyl)-benzoyl)glycyl)-1,2,3,6-tetrahydropyridin-4-yl)phenyl)-2-phenylacetate] | 0.3 to 3 nM | < 0.3 nM
COc1cc(C(=O)NCC(=O)N2CC=C(c3cccc([C@](O)(C(=O)OCC4CCN(Cc5ccccc5)CC4)c4ccccc4)c3)CC2)ccc1CNC[C@H](O)c1ccc(O)c2[nH]c(=O)ccc12 [Compound 8E, (1-Benzylpiperidin-4-yl)methyl (S)-2-hydroxy-2-(3-(1-((4-((((R)-2-hydroxy-2-(8-hydroxy-2-oxo-1,2-dihydroquinolin-5-yl)ethyl)amino)methyl)-3-methoxybenzoyl)glycyl)-1,2,3,6-tetrahydropyridin-4-yl)phenyl)-2-phenylacetate] | 0.3 to 3 nM | < 0.3 nM
CN(CC(=O)N1CC=C(c2cccc([C@](O)(C(=O)OCC3CCN(Cc4ccccc4)CC3)c3ccccc3)c2)CC1)C(=O)c1ccc(CNC[C@H](O)c2ccc(O)c3[nH]c(=O)ccc23)cc1 [Compound 8F, (1-Benzylpiperidin-4-yl)methyl (S)-2-hydroxy-2-(3-(1-(N-(4-((((R)-2-hydroxy-2-(8-hydroxy-2-oxo-1,2-dihydroquinolin-5-yl)ethyl)amino)-methyl)benzoyl)-N-methylglycyl)-1,2,3,6-tetrahydropyridin-4-yl)phenyl)-2-phenylacetate] | 0.3 to 3 nM | 0.3 to 3 nM
O=C(NCCCNC[C@H](O)c1ccc(O)c2[nH]c(=O)ccc12)c1cncc(-c2cccc([C@](O)(C(=O)OCC3CCN(Cc4ccccc4)CC3)c3ccccc3)c2)n1 [Compound 10, (1-Benzylpiperidin-4-yl)methyl (S)-2-hydroxy-2-(3-(6-((3-(((R)-2-hydroxy-2-(8-hydroxy-2-oxo-1,2-dihydroquinolin-5-yl)ethyl)amino)propyl)carbamoyl)pyrazin-2-yl)phenyl)-2-phenylacetate] | 0.3 to 3 nM | 0.3 to 3 nM
COc1cc(C(=O)NCc2ccc(-c3cccc([C@](O)(C(=O)OCC4(C)CCN(Cc5ccccc5)CC4)c4ccccc4)c3)s2)c(Cl)cc1CNC[C@H](O)c1ccc(O)c2[nH]c(=O)ccc12 [Compound 11, (1-Benzyl-4-methylpiperidin-4-yl)methyl (S)-2-(3-(5-((2-chloro-4-((((R)-2-hydroxy-2-(8-hydroxy-2-oxo-1,2-dihydroquinolin-5-yl)ethyl)amino)methyl)-5-methoxybenzamido)methyl)thiophen-2-yl)phenyl)-2-hydroxy-2-phenylacetate] | 0.3 to 3 nM | < 0.3 nM
O=C1c2ccc(CNC[C@H](O)c3ccc(O)c4[nH]c(=O)ccc34)cc2C(=O)N1Cc1ccc(-c2cccc([C@](O)(C(=O)OCC3CCN(Cc4ccccc4)CC3)c3ccccc3)c2)s1 [Compound 12, (1-Benzylpiperidin-4-yl)methyl (S)-2-hydroxy-2-(3-(5-((5-((((R)-2-hydroxy-2-(8-hydroxy-2-oxo-1,2-dihydroquinolin-5-yl)ethyl)amino)methyl)-1,3-dioxoisoindolin-2-yl)methyl)thiophen-2-yl)phenyl)-2-phenylacetate] | 0.3 to 3 nM | 0.3 to 3 nM
O=C(NCC(=O)N1CCC(c2cccc([C@](O)(C(=O)OCC3CCN(Cc4ccccc4)CC3)c3ccccc3)c2)CC1)c1ccc(CCNC[C@H](O)c2ccc(O)c3[nH]c(=O)ccc23)cc1 [Compound 13, (1-Benzylpiperidin-4-yl)methyl (S)-2-hydroxy-2-(3-(1-((4-(2-(((R)-2-hydroxy-2-(8-hydroxy-2-oxo-1,2-dihydroquinolin-5-yl)ethyl)amino)ethyl)benzoyl)-glycyl)piperidin-4-yl)phenyl)-2-phenylacetate] | 0.3 to 3 nM | < 0.3 nM
